For experiment [1], the system named is glycominimized (GM) E. coli strain. The experiment in a line: Osmotic stress sensitivity assay, GM strain compared to WT strain. It is filed as cell-based, Escherichia coli K-12 MG1655. The settings on record: minimal medium. As to the method:
Cells were cultured in Greiner Bio-One (Vilvoorde, Belgium) polystyrene F-bottom 96 well plates using the defined medium described above and inoculated 1% from precultures, which were grown in a carbon limiting 2.2 g/L glucose H2O defined medium variant. For the minimum inhibitory concentration (MIC) determination and osmotic stress sensitivity experiments, antibiotics resp. salts were supplemented to the medium in a 100 mL volumetric flask and subsequently filter sterilized using a […] Corning filter system. Each strain was grown in multiple wells of the 96-well plate as biological replicates. These final 96-well culture plates were then incubated at 30° C. on an orbital shaker at 800 rpm for 72h, or longer
The maximal growth rate (Max) was calculated based on the observed optical densities at 600 nm using the R package grofit.
To test the osmotic stress sensitivity of an E. coli strain, a concentration array of KCl, NaCl and sucrose was applied, and growth of the strain recorded. The growth rate was calculated and plotted in function of the concentration of each solute as well as of the osmotic pressure. The osmotic pressure π is calculated as π=i*C*R*T whereby i is the dimensionless Van't Hoff index, C the concentration of the solute (mol/L), R the ideal gas constant and T the temperature (K). For salts that dissociate in water, the Van't Hoff index is the sum of all ions originating from one molecule.
Since the semi-permeable membrane of the GM strain is severely altered compared to that of the WT strain, the osmotic sensitivity of both strains was compared toward KCl, NaCl and sucrose.

The test system is the same in experiment [2]. Briefly: Growth rate and MIC in minimal medium with increasing antibiotic concentrations, GM strain compared to WT strain. The format is cell-based, Escherichia coli K-12 MG1655.
Description: Cells were cultured in Greiner Bio-One (Vilvoorde, Belgium) polystyrene F-bottom 96 well plates using the defined medium described above and inoculated 1% from precultures, which were grown in a carbon limiting 2.2 g/L glucose H2O defined medium variant. For the minimum inhibitory concentration (MIC) determination and osmotic stress sensitivity experiments, antibiotics resp. salts were supplemented to the medium in a 100 mL volumetric flask and subsequently filter sterilized using a 0,22 m Corning filter system. Each strain was grown in multiple wells of the 96-well plate as biological replicates. These final 96-well culture plates were then incubated at 30° C. on an orbital shaker at 800 rpm for 72h, or longer
Cell density of the cultures was frequently monitored by measuring optical density at 600 nm (Implen Nanophotometer NP80, Westburg, Belgium) or with a Spark 1OM microplate reader (Tecan, Switzerland).
The minimum inhibitory concentration (MIC) was determined as the lowest concentration of an antibiotic where the growth rate was less or equal than 10% of the growth rate when no antibiotic was added.
In this experiment, the growth rate was measured for both the wildtype and the GM strain when grown in media containing increasing antibiotic concentrations.
[3] abbreviates: at 5 g/L concentrations of the salt solutes.

For `[Cl-].[K+]` [KCl], in experiment [1] (setting [3]), the “osmotic sensitivity of the GM strain compared to the WT strain (relative specific growth rate, FIG. 2)” value is given as “equally sensitive”.
For `[Cl-].[Na+]` [NaCl], the “osmotic sensitivity of the GM strain compared to the WT strain (relative specific growth rate, FIG. 2)” value in experiment [1] (setting [3]) was “equally sensitive”.
In the case of `CC[C@H]1OC(=O)[C@H](C)[C@@H](O[C@H]2C[C@@](C)(OC)[C@@H](O)[C@H](C)O2)[C@H](C)[C@@H](O[C@@H]2O[C@H](C)C[C@H](N(C)C)[C@H]2O)[C@](C)(O)C[C@@H](C)C(=O)[C@H](C)[C@@H](O)[C@]1(C)O` [erythromycin], the “minimum inhibitory concentration (MIC), GM strain vs WT strain” value in experiment [2] (MIC = lowest concentration where growth rate is less or equal than 10% of growth rate without antibiotic, both strains compared) is “similar”. Further, the “sensitivity of the GM strain to the antibiotic compared to the WT strain (relative specific growth rate, FIG. 1)” value in experiment [2] (minimal medium, increasing antibiotic concentrations, GM vs WT strain) was “similarly sensitive”.
For `OC[C@H]1O[C@@](CO)(O[C@H]2O[C@H](CO)[C@@H](O)[C@H](O)[C@H]2O)[C@@H](O)[C@@H]1O` [sucrose], in experiment [1] (up till 64 g/L sucrose), the “osmotic sensitivity of the GM strain compared to the WT strain (relative specific growth rate, FIG. 2)” value is reported as “equally sensitive”.

These data come from patent US20220403431A1, “GLYCOMINIMIZED BACTERIAL HOST CELLS” (INBIOSE N.V., priority 2020, published 2022).
